Laboratory results as given in US20260265189A1, “NOVEL COMPOUND, AND PHARMACEUTICAL COMPOSITION COMPRISING SAME AS ACTIVE INGREDIENT” (SAPIENSBIO INC., priority 2022, published 2026).

How the values were obtained:
[1] = system: α-SMA expression in MRC5 cells; assay: inhibition of α-SMA expression in MRC5 cells, image screening method; format: cell-based; details: Homo sapiens; MRC5, compound 10 μM, TGF-β1 5 ng/mL, 72 hours, relative to TGF-β1 alone; read-out: Inhibitory activity (α-SMA expression inhibition)
Procedure, shortened: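 MRC5 cells exposed to compound (10 μM) or DMSO with TGF-β1 (5 ng/mL) for 72 h, then fixed, permeabilised, blocked and immunostained for α-SMA (FITC) and GAPDH. Image-based quantitation; α-SMA level with compound plus TGF-β1 expressed relative to TGF-β1 alone.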

F-actin in MRC5 cells = assay: inhibition of F-actin formation in TGF-β1-treated MRC5 cells (confocal imaging); format: cell-based, human; details: TGF-β1 5 ng/mL, 70 hours; for intracellular F-actin formation: MRC5, compound 10 μM, FIGS. 2C, 2D
Method: (§1) It is known that when the process of pulmonary fibrosis results in structural changes in cells, the level of F-actin increases. Therefore, to confirm the therapeutic efficacy of the compounds of the present invention for pulmonary fibrosis-related diseases, the structural changes of cells after treating fibrosis-induced MRC5 with the compounds of the present invention were measured by the degree of inhibition of F-actin and α-SMA formation.
(§2) Specifically, MRC5 cells were treated with Compound 32 (10 μM) or Compound 42 (10 μM) according to the present invention, CK-666 (actin polymerization inhibitor, 10 μM), nintedanib (1 μM), or DMSO, which had been dissolved in a 0.5% fetal bovine serum (FBS)-containing medium, and 2 hours later, the cells were treated with TGF-β1 (5 ng/mL) to cause fibrosis. Due to strong cytotoxicity of the drug of nintedanib, all cells die when treated with nintedanib at the same concentration (10 μM) as that of the compound of the present invention, so it is impossible to conduct a comparative experiment. Therefore, the effect was confirmed by treating the cells with 1 μM nintedanib. 70 hours later, the cells were fixed with a 2% paraformaldehyde solution for 10 minutes, treated with a 0.1% Triton X-100 solution for 10 minutes to provide cell membrane permeability, and treated with a 1% bovine serum albumin (BSA) solution to prevent non-specific binding. […] High-resolution F-actin images acquired with a STELLARIS 5 confocal microscope (Leica) were quantitatively represented by standardizing F-actin stained with rhodamine phalloidin using Alexa Fluor™ Plus 488-labeled GAPDH using self-developed analysis software through programming. […] High-resolution α-SMA images acquired with a STELLARIS 5 confocal microscope (Leica) were quantitatively represented by standardizing α-SMA stained with an anti-α-SMA-FITC antibody with Alexa Fluor™ Plus 488-labeled GAPDH using self-developed analysis software through programming.

α-SMA in MRC5 cells = assay: inhibition of α-SMA formation in TGF-β1-treated MRC5 cells (confocal imaging); format: cell-based, human; details: TGF-β1 5 ng/mL, 70 hours; for intracellular α-SMA formation: MRC5, compound 10 μM, FIGS. 2A, 2B
Method: as §1, §2

[2] = system: IL-6 secretion by M1 macrophages derived from THP-1; assay: IL-6 secretion by LPS-activated THP-1-derived M1 macrophages (cytometric bead array); format: cell-based, human; details: LPS 10 ng/mL 6 hours, compound 1 μM or 10 μM, FIG. 3
Method: IL-6 is one of the pro-inflammatory cytokines secreted by activated macrophages, M1 macrophages, and is a potent trigger of fibrosis. Therefore, to evaluate the inhibitory activity of the compounds according to the present invention to inhibit pulmonary fibrosis through the inhibition of inflammatory effects, the extent of IL-6 secretion by macrophages after treatment of activated macrophages with the compounds was compared.
First, macrophages were prepared through the following process: 1 mL of a medium containing 5×10^5 cells/mL of THP-1 cells (Korean Cell Line Bank; KCLB NO. 40202) grown in a complete medium (a medium in which Roswell Park Memorial Institute [RPMI] is supplemented with 10% [vol/vol] fetal bovine serum [FBS] and 1% [vol/vol] penicillin/streptomycin [P/S]) was dispensed by 1 mL into each well of a 12-well plate. […]
Subsequently, the measurement of a cytokine level was performed through the following process: the secured complete medium was centrifuged at 13,000 RPM for 10 minutes in a 4° C. centrifuge, and then a supernatant was transferred to a new 1.5 mL microcentrifuge tube. […] The amount of IL-6 binding to the beads was measured using a Novocyte 3000 flow cytometer (Agilent).

[3] = system: α-SMA expression in MRC5 cells; details: stated as known; cited from earlier work
[4] = cited from earlier work
MRC5 cells = assay: cytotoxicity in MRC5 cells; format: cell-based, human; details: 10 μM

Row | SMILES | inhibition at 10 µM [1] [%] | intracellular F-actin formation (F-actin in MRC5 cells) | intracellular α-SMA formation (α-SMA in MRC5 cells) | IL-6 production [2] | α-SMA inhibitory activity [3] [%] | F-actin formation (F-actin in MRC5 cells; MRC5, nintedanib 1 μM) | effect of inhibiting α-SMA formation (α-SMA in MRC5 cells; MRC5, nintedanib 1 μM) | therapeutic effect ([4]; IPF treatment, stated as known) [%] | lung function improvement ([4]; clinical use as therapeutic drug for pulmonary fibrosis) | cytotoxicity (MRC5 cells)
1 | CC(C)CN1CCC(NC(=O)N2CCN(c3ccc(F)cc3)c3cc(F)ccc32)CC1 [Compound 32, 6-fluoro-4-(4-fluorophenyl)-N-(1-isobutylpiperidin-4-yl)-3,4-dihydroquinoxaline-1(2H)-carboxamide] | ≥ 70 | decreased to a level similar to that in the group not treated with TGF-β1 | decreased to a level similar to that in the group not treated with TGF-β1 | decrease |  |  |  |  |  | 
2 | CC(C)N1CC(NC(=O)N2CCN(c3ccc(F)cc3)c3cc(F)ccc32)C1 [Compound 42, 6-fluoro-4-(4-fluorophenyl)-N-(1-isopropylazetidin-3-yl)-3,4-dihydroquinoxaline-1(2H)-carboxamide] | 50 to 70 | decreased to a level similar to that in the group not treated with TGF-β1 | decreased to a level similar to that in the group not treated with TGF-β1 | decrease |  |  |  |  |  | 
3 | COC(=O)c1ccc2c(c1)NC(=O)/C2=C(\Nc1ccc(N(C)C(=O)CN2CCN(C)CC2)cc1)c1ccccc1 [nintedanib] |  |  |  |  | 0 | did not inhibit | lower than Compounds 32 and 42 | 10 | about 10% | all cells die
